Reference: PubChem BioAssay AID1918952 (Molecular Pharmacology Branch, DTP, NCI, 2023)
Several values for one entry are separate records, joined by “and”; a condition that tells them apart may be missing. Equal entries are not always repeated.

System: LG0703-F948-PDC complex spheroid viability
Test: Anticancer human tumor LG0703-F948-PDC patient-derived lung adenocarcinoma cell line growth inhibition
Details: for viability, T/C: stronger effect = lower value
Outline: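 Multicellular complex spheroids of tumor cells with human endothelial cells (HUVEC) and mesenchymal stem cells; the LSD1 inhibitor iadademstat was combined with standard-of-care or investigational agents. Top concentration at or near clinical Cmax, half-log dilutions; final DMSO ≤0.25%.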

[1] = curve of first compound, second compound 0.1 µM
[2] = curve of first compound, second compound 0.316 µM
[3] = curve of first compound, second compound 1 µM
[4] = curve of first compound, second compound 3.16 µM
[5] = curve of first compound, second compound 10 µM
[6] = second compound 0.1 µM, first compound 0.00316 µM
[7] = second compound 0.1 µM, first compound 0.01 µM
[8] = second compound 0.1 µM, first compound 0.0316 µM
[9] = second compound 0.1 µM, first compound 0.1 µM
[10] = second compound 0.1 µM, first compound 0.316 µM
[11] = second compound 0.1 µM, first compound 1 µM
[12] = second compound 0.316 µM, first compound 0.00316 µM
[13] = second compound 0.316 µM, first compound 0.01 µM
[14] = second compound 0.316 µM, first compound 0.0316 µM
[15] = second compound 0.316 µM, first compound 0.1 µM
[16] = second compound 0.316 µM, first compound 0.316 µM
[17] = second compound 0.316 µM, first compound 1 µM
[18] = second compound 1 µM, first compound 0.00316 µM
[19] = second compound 1 µM, first compound 0.01 µM
[20] = second compound 1 µM, first compound 0.0316 µM
[21] = second compound 1 µM, first compound 0.1 µM
[22] = second compound 1 µM, first compound 0.316 µM
[23] = second compound 1 µM, first compound 1 µM
[24] = second compound 3.16 µM, first compound 0.00316 µM
[25] = second compound 3.16 µM, first compound 0.01 µM
[26] = second compound 3.16 µM, first compound 0.0316 µM
[27] = second compound 3.16 µM, first compound 0.1 µM
[28] = second compound 3.16 µM, first compound 0.316 µM
[29] = second compound 3.16 µM, first compound 1 µM
[30] = second compound 10 µM, first compound 0.00316 µM
[31] = second compound 10 µM, first compound 0.01 µM
[32] = second compound 10 µM, first compound 0.0316 µM
[33] = second compound 10 µM, first compound 0.1 µM
[34] = second compound 10 µM, first compound 0.316 µM
[35] = second compound 10 µM, first compound 1 µM
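Also: spheroids exposed to agents for seven days before readout.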
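For viability, T/C in this document: 100% = DMSO vehicle control wells as normalization base.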

Nc1ncn(C2CC(O)C(CO)O2)c(=O)n1 (stereo unspecified) + NC1CC1c1ccc(-c2cccc(O)c2)cc1
IC50 [1]: > 1 µM | IC50 [2]: > 1 µM | IC50 [3]: > 1 µM | IC50 [4]: > 1 µM | IC50 [5]: > 1 µM | viability, T/C [6]: 106% | viability, T/C [7]: 111% | viability, T/C [8]: 99.3% | viability, T/C [9]: 116% | viability, T/C [10]: 85.4% | viability, T/C [11]: 88.9% | viability, T/C [12]: 116% | viability, T/C [13]: 117% | viability, T/C [14]: 106% | viability, T/C [15]: 95.2% | viability, T/C [16]: 95.7% | viability, T/C [17]: 94.3% | viability, T/C [18]: 106% | viability, T/C [19]: 103% | viability, T/C [20]: 104% | viability, T/C [21]: 95.7% | viability, T/C [22]: 96.3% | viability, T/C [23]: 94.6% | viability, T/C [24]: 108% | viability, T/C [25]: 112% | viability, T/C [26]: 99.8% | viability, T/C [27]: 89.7% | viability, T/C [28]: 105% | viability, T/C [29]: 105% | viability, T/C [30]: 103% | viability, T/C [31]: 104% | viability, T/C [32]: 107% | viability, T/C [33]: 106% | viability, T/C [34]: 98.4% | viability, T/C [35]: 95.3%

CCc1c2c(nc3ccc(O)cc13)-c1cc3c(c(=O)n1C2)COC(=O)[C@]3(O)CC
viability, T/C (compound 0.000949 µM): 46.8% and 51.2% | viability, T/C (compound 0.003 µM): 28.6% and 31% | viability, T/C (compound 0.00949 µM): 21.1% and 17.5% | viability, T/C (compound 0.03 µM): 12.4% and 14.2% | viability, T/C (compound 0.0949 µM): 9.01% and 6.61% | viability, T/C (compound 0.3 µM): 4.04% and 3.45% | IC50 (curve of compound): < 0.000949 µM and 0.000999 µM

COc1cc(C2c3cc4c(cc3C(OC3OC5COC(C)OC5C(O)C3O)C3COC(=O)C23)OCO4)cc(OC)c1O (stereo unspecified)
viability, T/C (compound 0.00949 µM): 91.2% and 110% | viability, T/C (compound 0.03 µM): 86.7% and 112% | viability, T/C (compound 0.0949 µM): 83% and 88.5% | viability, T/C (compound 0.3 µM): 77% and 84.2% | viability, T/C (compound 0.949 µM): 75% and 81.7% | viability, T/C (compound 3 µM): 49.3% and 59.2% | IC50 (curve of compound): > 3 µM

CC(C)CC(NC(=O)CNC(=O)c1cc(Cl)ccc1Cl)B1OC(=O)CC(CC(=O)O)(C(=O)O)O1 (stereo unspecified)
viability, T/C (compound 0.000316 µM): 102% and 100% | viability, T/C (compound 0.001 µM): 104% and 92.3% | viability, T/C (compound 0.00316 µM): 68.4% and 56.8% | viability, T/C (compound 0.01 µM): 21.7% and 15.9% | viability, T/C (compound 0.0316 µM): 3.57% and 2.13% | viability, T/C (compound 0.1 µM): 0.76% and 0.44% | IC50 (curve of compound): 0.00504 µM and 0.00385 µM

O=C(C=Cn1cnc(-c2cc(C(F)(F)F)cc(C(F)(F)F)c2)n1)NNc1cnccn1 + NC1CC1c1ccc(-c2cccc(O)c2)cc1
IC50 [1]: 0.0121 µM | IC50 [2]: 0.018 µM | IC50 [3]: 0.0259 µM | IC50 [4]: 0.0691 µM | IC50 [5]: 0.114 µM | viability, T/C [6]: 62.2% | viability, T/C [7]: 54.6% | viability, T/C [8]: 38.8% | viability, T/C [9]: 34.7% | viability, T/C [10]: 31.8% | viability, T/C [11]: 25.4% | viability, T/C [12]: 67.6% | viability, T/C [13]: 58.9% | viability, T/C [14]: 40% | viability, T/C [15]: 36.2% | viability, T/C [16]: 26% | viability, T/C [17]: 24.6% | viability, T/C [18]: 70.4% | viability, T/C [19]: 58.8% | viability, T/C [20]: 47% | viability, T/C [21]: 39.5% | viability, T/C [22]: 29.5% | viability, T/C [23]: 22.6% | viability, T/C [24]: 70.4% | viability, T/C [25]: 67.7% | viability, T/C [26]: 64% | viability, T/C [27]: 43.6% | viability, T/C [28]: 22.4% | viability, T/C [29]: 22% | viability, T/C [30]: 75.8% | viability, T/C [31]: 73.1% | viability, T/C [32]: 64.2% | viability, T/C [33]: 54.9% | viability, T/C [34]: 31.7% | viability, T/C [35]: 23.7%

CC(C)CC(NC(=O)CNC(=O)c1cc(Cl)ccc1Cl)B1OC(=O)CC(CC(=O)O)(C(=O)O)O1 (stereo unspecified) + NC1CC1c1ccc(-c2cccc(O)c2)cc1
IC50 [1]: 0.00382 µM | IC50 [2]: 0.00308 µM | IC50 [3]: 0.00283 µM | IC50 [4]: 0.00313 µM | IC50 [5]: 0.00258 µM | viability, T/C (second compound 0.1 µM, first compound 0.000316 µM): 91.2% | viability, T/C (second compound 0.1 µM, first compound 0.001 µM): 102% | viability, T/C [6]: 57.3% | viability, T/C [7]: 9.87% | viability, T/C [8]: 1.39% | viability, T/C [9]: 0.35% | viability, T/C (second compound 0.316 µM, first compound 0.000316 µM): 102% | viability, T/C (second compound 0.316 µM, first compound 0.001 µM): 96.5% | viability, T/C [12]: 47.9% | viability, T/C [13]: 10.8% | viability, T/C [14]: 1.68% | viability, T/C [15]: 0.68% | viability, T/C (second compound 1 µM, first compound 0.000316 µM): 90.9% | viability, T/C (second compound 1 µM, first compound 0.001 µM): 106% | viability, T/C [18]: 44.7% | viability, T/C [19]: 8.76% | viability, T/C [20]: 0.48% | viability, T/C [21]: 0.25% | viability, T/C (second compound 3.16 µM, first compound 0.000316 µM): 93.9% | viability, T/C (second compound 3.16 µM, first compound 0.001 µM): 103% | viability, T/C [24]: 49.6% | viability, T/C [25]: 6.24% | viability, T/C [26]: 0.66% | viability, T/C [27]: 0.21% | viability, T/C (second compound 10 µM, first compound 0.000316 µM): 83.2% | viability, T/C (second compound 10 µM, first compound 0.001 µM): 96.4% | viability, T/C [30]: 41.5% | viability, T/C [31]: 3.08% | viability, T/C [32]: 0.14% | viability, T/C [33]: 0.2%

O=C(C=Cc1cccc(S(=O)(=O)Nc2ccccc2)c1)NO + NC1CCC(NC2CC2c2ccccc2)CC1
IC50 [1]: 0.0782 µM | IC50 [2]: 0.0835 µM | IC50 [3]: 0.0832 µM | IC50 [4]: 0.0778 µM | IC50 [5]: 0.0576 µM | viability, T/C (second compound 0.1 µM, first compound 0.00949 µM): 103% | viability, T/C (second compound 0.1 µM, first compound 0.03 µM): 88% | viability, T/C (second compound 0.1 µM, first compound 0.0949 µM): 41.8% | viability, T/C (second compound 0.1 µM, first compound 0.3 µM): 10.5% | viability, T/C (second compound 0.1 µM, first compound 0.949 µM): 1.71% | viability, T/C (second compound 0.1 µM, first compound 3 µM): 0.44% | viability, T/C (second compound 0.316 µM, first compound 0.00949 µM): 114% | viability, T/C (second compound 0.316 µM, first compound 0.03 µM): 93.5% | viability, T/C (second compound 0.316 µM, first compound 0.0949 µM): 44.5% | viability, T/C (second compound 0.316 µM, first compound 0.3 µM): 10.6% | viability, T/C (second compound 0.316 µM, first compound 0.949 µM): 1.43% | viability, T/C (second compound 0.316 µM, first compound 3 µM): 0.17% | viability, T/C (second compound 1 µM, first compound 0.00949 µM): 126% | viability, T/C (second compound 1 µM, first compound 0.03 µM): 89.5% | viability, T/C (second compound 1 µM, first compound 0.0949 µM): 48.5% | viability, T/C (second compound 1 µM, first compound 0.3 µM): 9.18% | viability, T/C (second compound 1 µM, first compound 0.949 µM): 1.34% | viability, T/C (second compound 1 µM, first compound 3 µM): 0.11% | viability, T/C (second compound 3.16 µM, first compound 0.00949 µM): 102% | viability, T/C (second compound 3.16 µM, first compound 0.03 µM): 86% | viability, T/C (second compound 3.16 µM, first compound 0.0949 µM): 42.9% | viability, T/C (second compound 3.16 µM, first compound 0.3 µM): 8.17% | viability, T/C (second compound 3.16 µM, first compound 0.949 µM): 0.32% | viability, T/C (second compound 3.16 µM, first compound 3 µM): 0.12% | viability, T/C (second compound 10 µM, first compound 0.00949 µM): 114% | viability, T/C (second compound 10 µM, first compound 0.03 µM): 77.3% | viability, T/C (second compound 10 µM, first compound 0.0949 µM): 29.8% | viability, T/C (second compound 10 µM, first compound 0.3 µM): 4% | viability, T/C (second compound 10 µM, first compound 0.949 µM): 0.21% | viability, T/C (second compound 10 µM, first compound 3 µM): 0.19%
